Data published in patent publication US5622983A, “N-substituted cycloalkyl and polycycloalkyl α-substituted Trp-Phe- and phenethylamine derivatives” (Warner-Lambert Company, priority 1995, dated 1997).
Read-outs that look alike come from different tables or passages of the source.

How the values were obtained:
Central CCK Receptors = biological target: T1, Central CCK Receptors (Mus musculus, UniProt P56481); assay: Binding to central CCK receptors (tritiated-pentagastrin displacement, cerebral cortical membranes)
T1 sequence (P56481 1-453): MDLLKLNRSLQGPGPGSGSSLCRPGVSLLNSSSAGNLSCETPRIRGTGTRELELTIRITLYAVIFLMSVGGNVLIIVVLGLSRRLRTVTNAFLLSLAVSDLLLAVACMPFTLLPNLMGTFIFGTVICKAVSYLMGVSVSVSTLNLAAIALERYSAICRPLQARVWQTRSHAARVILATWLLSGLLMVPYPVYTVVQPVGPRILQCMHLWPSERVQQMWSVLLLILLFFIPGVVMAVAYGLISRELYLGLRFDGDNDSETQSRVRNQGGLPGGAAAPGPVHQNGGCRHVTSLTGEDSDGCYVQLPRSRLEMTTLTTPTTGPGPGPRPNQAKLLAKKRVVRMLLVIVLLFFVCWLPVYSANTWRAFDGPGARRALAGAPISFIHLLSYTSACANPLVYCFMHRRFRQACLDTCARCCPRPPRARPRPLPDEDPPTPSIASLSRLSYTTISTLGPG
Method: The biological activity of compounds of the present invention was evaluated employing an initial screening test which rapidly and accurately measured the binding of the tested compound to known CCK receptor sites.
The resulting suspension was centrifuged, the supernate was discarded, and the pellet was washed by resuspension in Tris-HCl buffer followed by recentrifugation.
In saturation studies, cerebral cortical membranes were incubated at 23° C. for 120 minutes in a final volume of 500 μliter of Hepes incubation buffer (pH 7.2) together with 0.2-20 nM tritiated-pentagastrin (Amersham International, England).
In each case, the nonspecific binding was defined as that persisting in the presence of the unlabeled octapeptide CCK26-33 (10^-6 M).
Following incubation, radioactivity bound to membranes was separated from that free in solution by rapid filtration through Whatman GF/B filters and washed three times with 4 mL of ice cold Tris-HCl buffer.
The specific binding to CCK receptor sites was defined as the total bound tritiated-pentagastrin minus the amount of tritiated-pentagastrin bound in the presence of 10^-6 octapeptide, CCK26-33.
The inhibition constant (Ki) of the test compound was then calculated according to the Cheng-Prusoff equation: [formula] where [L] is the concentration of radiolabel and Ka is the equilibrium dissociation constant.

[1] = Palatable Diet Feeding assay; assay type: in vivo, rat; conditions: dose producing 50% of the maximum effect possible (zero food intake)
Method: In the Palatable Diet Feeding assay, adult male Hooded Lister rats weighing between 200-400 g were housed individually and trained to eat a palatable diet. This diet consisted of Nestles sweetened condensed milk, powdered rat food and rat water which when blended together set to a firm consistency. […] The intake of palatable diet was measured by weighing the food container before and after the 30-minute access period (limits of accuracy 0.1 g). Care was taken to collect and correct for any spillage of the diet. Rats had free access to pellet food and water except during the 30-minute test period.
After the training period, dose-response curves were constructed for CCK8 and several representative compounds of the present invention (n=8-10 rats per dose level).

[2] = read-out: Binding to Central CCK Receptors Ki, displacement of 2 nM tritiated-pentagastrin, mouse cerebral cortical membranes

Row | Structure (SMILES) | Ki (Central CCK Receptors) [nM] | Inhibition of Feeding on Rat Palatable Diet Assay I.P. MPE50 [1] [mg/kg] | Ki (Central CCK Receptors; [2]) [nM]
1 | CC(Cc1c[nH]c2ccccc12)(NC(=O)O[C@@H]1CCCC[C@H]1Cl)C(=O)NCCc1ccccc1 (mixture of isomers) [Example 2, (±)-Trans-2-chlorocyclohexyl [1-(1H-indol-3-ylmethyl)-1-methyl-2-oxo-2-[(2-phenylethyl)amino]ethyl]carbamate] | 3150 | 9.6 | 
2 | CC(Cc1c[nH]c2ccccc12)(NC(=O)O[C@@H]1CCCC[C@H]1Cl)C(=O)NC(CO)Cc1ccccc1 (mixture of isomers) [Example 3, (±)-Trans-2-chlorocyclohexyl [2-[[1-(hydroxymethyl)-2-phenyethyl]amino]-1-(1H-indol-3-ylmethyl)-1-methyl-2-oxoethyl]carbamate. (D-tryptophan residue; L-phenylalanine residue).] |  | 30.7 | 260
3 | CC(Cc1c[nH]c2ccccc12)(NC(=O)O[C@@H]1CCCC[C@H]1Cl)C(=O)NC(CO)Cc1ccccc1 (mixture of isomers) [Example 14, (±)-trans-2-Chlorocyclohexyl-[2-[[1-(hydroxymethyl)-2-phenylethyl]amino]-1-(1H-indol-3ylmethyl)-1-methyl-2-oxoethyl]carbamate] |  | 19.5 | 10500
4 | C[C@](Cc1c[nH]c2ccccc12)(NC(=O)CC12CC3CC(CC(C3)C1)C2)C(=O)N[C@H](CO)Cc1ccccc1 (relative stereo) [Example 5, [R-(R*,S*)]-N-[1-(hydroxymethyl)-2-phenylethyl]-α-methyl-α-[[tricyclo[3.3.1.1^3,7]dec-1-ylacetyl)-amino]-1H-indole-3-propanamide] |  | 33.6 | 2230
5 | CC(Cc1c[nH]c2ccccc12)(NC(=O)OC1CCCCC1Cl)C(=O)NC(COC(=O)CCC(=O)O)Cc1ccccc1 (centres unmarked) [Example 4, 2-[[2-[[[2-chlorocyclohexyl)oxy]-carbonyl]amino]-3-(1H-indol-3-yl)-2-methyl-1-oxo-propyl]amino]-3-phenylpropyl butanedioate] |  | > 20 | 170
6 | CC(Cc1c[nH]c2ccccc12)(NS(=O)(=O)CC12CCC(CC1=O)C2(C)C)C(=O)NC(CO)Cc1ccccc1 (stereo not drawn) [Example 18, α-[[[(7,7-dimethyl-2-oxobicyclo[2.2.1]-hept-1-yl)-methyl]sulfonyl]amino]-N-[1-(hydroxymethyl)-2-phenylethyl]-α-methyl-1H-indole-3-propanamide-(Trpcenter R, phenylalanylcenter S)] |  |  | 21000
7 | CC(Cc1c[nH]c2ccccc12)(NC(=O)OC1C2CC3CC(C2)CC1C3)C(=O)NC(CNC(=O)CCC(=O)O)Cc1ccccc1 (stereo not drawn) [Example 19, [R-(R*,S*)]-4-[[2-[[3-(1H-indol-3-yl)-2-methyl-1-oxo-2-[[(tricyclo[3.3.1.1^3,7]dec-2-yloxy)carbonyl]amino]propyl]amino]-3-phenylpropyl]amino]-4-oxobutanoic acid] |  |  | 14
8 | CC(Cc1c[nH]c2ccccc12)(NC(=O)OC1C2CC3CC(C2)CC1C3)C(=O)NC(CNC(=O)C=CC(=O)O)Cc1ccccc1 (stereo not drawn) [Example 19A, [R-(R*,S*)]-4-[[2-(1H-Indol-3-yl)-2-methyl-1-oxo-2-[[tricyclo[3.3.1.1^3,7]dec-2-yloxylcarbonyl]amino]propyl]-amino]-3-phenylpropyl]amino]-4-oxo-2-butenoic acid] |  |  | 0.08
9 | CC(Cc1c[nH]c2ccccc12)(NC(=O)OC1C2CC3CC(C2)CC1C3)C(=O)NCC(NC(=O)CCc1nn[nH]n1)c1ccccc1 (stereo not drawn) [Example 33, Tricyclo[3.3.1.1^3,7]dec-2-yl [R,(R*,S*]-[1-(1H-indol-3-ylmethyl)-1-methyl-2-oxo-2-[[2-[[1-oxo-3-(1H -tetrazol-5-yl)propyl]amino]-2-phenylethyl]-amino]ethyl]carbamic acid ester] |  |  | 6
